# Structures can show the parent of a compound that is named as a salt.
# Legend:
# [1] = Disintegrant compatibility / stress storage; assay type: physicochemical; details: due to the presence of residual formaldehyde
# Protocol: It can be seen from the above table that core tablets formulated with Cross linked polyvinyl pyrollidone (PVP-XL) show a slower release compared to the Sodium Starch Glycollate (SSG), and Croscarmellose Sodium (Ac-Di-Sol) based formulations. […] Formulations containing Croscarmellose Sodium (Ac-Di-Sol) were also found to turn to yellow when prepared and exposed to 50° C. dry as well as 50° C./75% […] humidity for 4 weeks.
# [2] = Physicochemical properties of the drug substance
# Description: However, the compound of formula (I), or a pharmaceutically acceptable salt thereof, in particular the sodium salt thereof, is a drug substance which is difficult to formulate due to its physicochemical properties. […] It is also plate like, very fluffy, and sticky in nature.
structure (smiles),measurement,setting,value
"O=C(O)C[C@H]1CC[C@H](c2ccc(-c3ccc(Nc4ccc(C(F)(F)F)nc4)cn3)cc2)CC1 [compound of formula (II), trans-(4-{4-[5-(6-Trifluoromethyl-pyridin-3-ylamino)-pyridin-2-yl]-phenyl}-cyclohexyl)-acetic acid, sodium salt]",compatibility with Cross linked polyvinyl pyrollidone (PVP-XL),[1],incompatible
same,moisture uptake,[2]; at 95% relative humidity,high moisture uptake
same,hygroscopicity,"[2]; drug substance, sodium salt",hygroscopic
same,solubility,"[2]; drug substance, sodium salt",poorly soluble
